Laboratory results from ChEMBL document CHEMBL1201862, “PubChem BioAssay data set” (2004).
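96-well plates; 48 h exposure; 5 concentrations. Endpoints by linear interpolation between flanking doses. Not reached: highest tested concentration assigned. GI50 = concentration required for 50% inhibition of growth.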 Calls of active or inactive are those of the source. Rule as the data show it: active = GI50 up to about 1.1 µM and inactive = higher.

Assays:
Assay in all cases: DTP human tumour cell line panel, 48 h
CCRF-CEM = test system: CCRF-CEM
M19-MEL = test system: M19-MEL
HT-29 = test system: HT-29
M14 = test system: M14
EKVX = test system: EKVX
SK-MEL-28 = test system: SK-MEL-28
SNB-78 = test system: SNB-78
HCT-15 = test system: HCT-15
KM12 = test system: KM12
LOX IMVI = test system: LOX IMVI
OVCAR-4 = test system: OVCAR-4
ACHN = test system: ACHN
HOP-18 = test system: HOP-18
SK-MEL-5 = test system: SK-MEL-5
K562 = test system: K562
UO-31 = test system: UO-31
HOP-62 = test system: HOP-62
HCT-116 = test system: HCT-116
TK-10 = test system: TK-10
SN12C = test system: SN12C
SF-268 = test system: SF-268
XF498 = test system: XF498
HL-60 = test system: HL-60
NCI-H522 = test system: NCI-H522
CAKI-1 = test system: CAKI-1
MOLT-4 = test system: MOLT-4
DMS-273 = test system: DMS-273
SF-539 = test system: SF-539
Malme-3M = test system: Malme-3M
A549 = test system: A549
SR = test system: SR
RXF 393 = test system: RXF 393
HOP-92 = test system: HOP-92
A498 = test system: A498
786-0 = test system: 786-0
DMS-114 = test system: DMS-114
OVCAR-8 = test system: OVCAR-8
U-251 = test system: U-251
SF-295 = test system: SF-295
COLO 205 = test system: COLO 205
OVCAR-3 = test system: OVCAR-3
LXFL 529 = test system: LXFL 529
UACC-62 = test system: UACC-62
SK-MEL-2 = test system: SK-MEL-2
DLD-1 = test system: DLD-1
NCI-H460 = test system: NCI-H460
SW-620 = test system: SW-620
SK-OV-3 = test system: SK-OV-3
IGROV-1 = test system: IGROV-1
NCI-H23 = test system: NCI-H23
OVCAR-5 = test system: OVCAR-5
SNB-19 = test system: SNB-19
UACC-257 = test system: UACC-257
SNB-75 = test system: SNB-75
HCC 2998 = test system: HCC 2998
KM-20L2 = test system: KM-20L2
RPMI-8226 = test system: RPMI-8226
NCI-H226 = test system: NCI-H226

`O=C1NC2(CCCCC2)C2=C1CCCCC2` was tested, and the GI50 (CCRF-CEM) was > 100 µM (inactive), the GI50 (M19-MEL) was > 100 µM (inactive) and the GI50 (HT-29) was > 100 µM (inactive). For the same molecule, the GI50 (M14) was > 100 µM (inactive), the GI50 (EKVX) was > 100 µM (inactive) and the GI50 (SK-MEL-28) was > 100 µM (inactive). The GI50 (SNB-78) was > 100 µM (inactive), the GI50 (HCT-15) was > 100 µM and the GI50 (KM12) was > 100 µM (inactive). For the same molecule, the GI50 (LOX IMVI) was > 100 µM (inactive), the GI50 (OVCAR-4) was > 100 µM (inactive) and the GI50 (ACHN) was > 100 µM (inactive). For the same molecule, the GI50 (HOP-18) was > 100 µM (inactive), the GI50 (SK-MEL-5) was > 100 µM (inactive) and the GI50 (K562) was > 100 µM (inactive). For the same molecule, the GI50 (UO-31) was > 100 µM (inactive), the GI50 (HOP-62) was > 100 µM (inactive) and the GI50 (HCT-116) was > 100 µM (inactive). For the same molecule, the GI50 (TK-10) was > 100 µM (inactive), the GI50 (SN12C) was > 100 µM (inactive) and the GI50 (SF-268) was > 100 µM (inactive). The GI50 (XF498) was > 100 µM (inactive), the GI50 (HL-60) was > 100 µM (inactive) and the GI50 (NCI-H522) was > 100 µM (inactive). The GI50 (CAKI-1) was > 100 µM (inactive), the GI50 (MOLT-4) was > 100 µM (inactive) and the GI50 (DMS-273) was > 100 µM (inactive). The GI50 (SF-539) was > 100 µM (inactive), the GI50 (Malme-3M) was > 100 µM (inactive) and the GI50 (A549) was > 100 µM (inactive). The GI50 (SR) was > 100 µM (inactive), the GI50 (RXF 393) was > 100 µM (inactive) and the GI50 (HOP-92) was > 100 µM (inactive). The GI50 (A498) was > 100 µM (inactive), the GI50 (786-0) was > 100 µM (inactive) and the GI50 (DMS-114) was > 100 µM (inactive). The GI50 (OVCAR-8) was > 100 µM (inactive), the GI50 (U-251) was > 100 µM (inactive) and the GI50 (SF-295) was > 100 µM (inactive). For the same molecule, the GI50 (COLO 205) was > 100 µM (inactive), the GI50 (OVCAR-3) was > 100 µM (inactive) and the GI50 (LXFL 529) was > 100 µM (inactive). For the same molecule, the GI50 (UACC-62) was > 100 µM (inactive), the GI50 (SK-MEL-2) was > 100 µM (inactive) and the GI50 (DLD-1) was > 100 µM (inactive). For the same molecule, the GI50 (NCI-H460) was > 100 µM (inactive), the GI50 (SW-620) was > 100 µM (inactive) and the GI50 (SK-OV-3) was > 100 µM (inactive). The GI50 (IGROV-1) was > 100 µM (inactive), the GI50 (NCI-H23) was > 100 µM (inactive) and the GI50 (OVCAR-5) was > 100 µM (inactive). The GI50 (SNB-19) was > 100 µM (inactive), the GI50 (UACC-257) was > 100 µM (inactive) and the GI50 (SNB-75) was > 100 µM (inactive).

In the case of `CN(CCN(C)C(=O)CCOS(C)(=O)=O)C(=O)CCOS(C)(=O)=O`, the GI50 (HCC 2998) is reported as > 100 µM (inactive), the GI50 (CCRF-CEM) is reported as 24.3 µM (inactive) and the GI50 (HT-29) is reported as > 100 µM (inactive). For the same molecule, the GI50 (M14) was > 100 µM (inactive), the GI50 (EKVX) was > 100 µM (inactive) and the GI50 (SK-MEL-28) was > 100 µM (inactive). For the same molecule, the GI50 (KM-20L2) was > 100 µM (inactive), the GI50 (SNB-78) was > 100 µM (inactive) and the GI50 (HCT-15) was > 100 µM. For the same molecule, the GI50 (KM12) was > 100 µM (inactive), the GI50 (LOX IMVI) was > 100 µM (inactive) and the GI50 (OVCAR-4) was > 100 µM (inactive). The GI50 (ACHN) was > 100 µM (inactive), the GI50 (RPMI-8226) was > 100 µM (inactive) and the GI50 (HOP-18) was > 100 µM (inactive). For the same molecule, the GI50 (SK-MEL-5) was > 100 µM (inactive), the GI50 (K562) was > 100 µM (inactive) and the GI50 (HOP-62) was 59 µM (inactive). For the same molecule, the GI50 (HCT-116) was > 100 µM (inactive), the GI50 (TK-10) was > 100 µM (inactive) and the GI50 (SN12C) was > 100 µM (inactive). The GI50 (SF-268) was 77.8 µM (inactive), the GI50 (NCI-H226) was > 100 µM (inactive) and the GI50 (XF498) was > 100 µM (inactive). For the same molecule, the GI50 (HL-60) was 30.9 µM (inactive), the GI50 (NCI-H522) was > 100 µM (inactive) and the GI50 (CAKI-1) was > 100 µM (inactive). For the same molecule, the GI50 (MOLT-4) was 41 µM (inactive), the GI50 (DMS-273) was 74 µM (inactive) and the GI50 (SF-539) was 44.1 µM (inactive). The GI50 (Malme-3M) was > 100 µM (inactive), the GI50 (A549) was > 100 µM (inactive) and the GI50 (SR) was 15.6 µM (inactive). The GI50 (HOP-92) was > 100 µM (inactive), the GI50 (A498) was > 100 µM (inactive) and the GI50 (786-0) was > 100 µM (inactive). The GI50 (DMS-114) was > 100 µM (inactive), the GI50 (OVCAR-8) was > 100 µM (inactive) and the GI50 (U-251) was > 100 µM (inactive). The GI50 (SF-295) was > 100 µM (inactive), the GI50 (COLO 205) was > 100 µM (inactive) and the GI50 (OVCAR-3) was > 100 µM (inactive). The GI50 (LXFL 529) was > 100 µM (inactive), the GI50 (UACC-62) was 43.5 µM (inactive) and the GI50 (SK-MEL-2) was > 100 µM (inactive). The GI50 (DLD-1) was > 100 µM (inactive), the GI50 (NCI-H460) was 19.5 µM (inactive) and the GI50 (SW-620) was > 100 µM (inactive). For the same molecule, the GI50 (SK-OV-3) was > 100 µM (inactive), the GI50 (IGROV-1) was > 100 µM (inactive) and the GI50 (NCI-H23) was > 100 µM (inactive). The GI50 (OVCAR-5) was > 100 µM (inactive), the GI50 (SNB-19) was > 100 µM (inactive) and the GI50 (UACC-257) was > 100 µM (inactive). The GI50 (SNB-75) was > 100 µM (inactive).
